For this assay, the target named is T1, human HSL (Homo sapiens, UniProt Q05469).
T1 construct: overlapping PCR to generate a full length human HSL ORF with a 3′-His6 tag; His6 (C); made in house; host or cells: High 5 insect cells (baculovirus, pFast-BAC)
T1 sequence (Q05469 1-1076): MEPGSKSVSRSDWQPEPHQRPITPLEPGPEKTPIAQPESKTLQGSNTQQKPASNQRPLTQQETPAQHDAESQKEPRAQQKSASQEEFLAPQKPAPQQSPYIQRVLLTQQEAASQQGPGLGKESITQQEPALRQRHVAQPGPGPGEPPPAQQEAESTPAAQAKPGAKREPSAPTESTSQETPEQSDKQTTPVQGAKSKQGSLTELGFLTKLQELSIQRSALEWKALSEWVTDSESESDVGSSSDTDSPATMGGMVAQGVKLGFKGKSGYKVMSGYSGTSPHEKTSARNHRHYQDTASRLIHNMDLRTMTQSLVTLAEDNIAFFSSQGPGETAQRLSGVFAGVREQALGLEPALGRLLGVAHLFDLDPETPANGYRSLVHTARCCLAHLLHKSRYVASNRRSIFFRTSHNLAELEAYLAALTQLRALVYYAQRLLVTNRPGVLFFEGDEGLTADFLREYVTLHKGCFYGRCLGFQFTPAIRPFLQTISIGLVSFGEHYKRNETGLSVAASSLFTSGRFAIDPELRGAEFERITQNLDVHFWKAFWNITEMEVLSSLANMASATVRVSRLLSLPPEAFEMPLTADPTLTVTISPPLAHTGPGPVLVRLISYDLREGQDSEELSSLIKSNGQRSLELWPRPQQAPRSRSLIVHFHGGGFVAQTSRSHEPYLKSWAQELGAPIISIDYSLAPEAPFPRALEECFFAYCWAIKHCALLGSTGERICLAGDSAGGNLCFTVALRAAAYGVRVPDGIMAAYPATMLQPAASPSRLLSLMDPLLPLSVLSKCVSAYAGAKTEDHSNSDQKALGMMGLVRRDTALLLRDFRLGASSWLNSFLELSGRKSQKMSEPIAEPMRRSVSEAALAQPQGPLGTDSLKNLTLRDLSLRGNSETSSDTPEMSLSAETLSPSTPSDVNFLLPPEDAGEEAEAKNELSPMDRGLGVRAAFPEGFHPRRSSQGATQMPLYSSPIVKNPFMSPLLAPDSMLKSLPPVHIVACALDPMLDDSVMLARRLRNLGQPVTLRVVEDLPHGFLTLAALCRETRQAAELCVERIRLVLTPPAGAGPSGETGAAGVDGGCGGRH
Kind of assay: Human Hormone-Sensitive Lipase (HSL) enzyme inhibition assay (colorimetric, DMPT substrate). The class given is biochemical. The following applies: human full length HSL-His6, 2,3-dimercapto-1-propanol tributyrate substrate, 37° C. 20 minutes, absorbance at 405 nm; read-out: HSL hum IC50. Here is the method:
1) Cloning: cDNA was prepared from commercial human brain polyA+ RNA and used as a template in overlapping PCR to generate a full length human HSL ORF with a 3′-His6 tag. This full length insert was cloned into the pFast-BAC vector and the DNA-sequence of several single clones was verified. DNA from a correct full length clone with the 3′His6 tag was used to transform the E. coli strain DH10BAC. Resulting bacmid DNA was used to generate a titered baculovirus stock for protein generation.
Cells were thawed. […] was done at 3×30 sec., Lubrol PX was added to 0.2% final concentration followed by stirring for 15 min. at 4° C. and centrifugation at 25 k×g, 60 min., 4° C. […] Supernatant was removed, the resin washed in the centrifuge vessel using 5 volumes of Base Buffer containing 0.2% Lubrol PX. Centrifugation was done again, then the supernatant discarded. The resin was poured onto a 0.8 μm membrane in a disposable filter unit (Nalge 450-0080), and washed with 5 volumes of Base Buffer containing 0.2% Lubrol PX. It was then washed with 30 volumes of Base Buffer containing 60 mM imidazole pH 7.5 at 4° C. The protein was eluated with 5 volumes of 25 mM Tris-Cl, 300 mM NaCl, 200 mM imidazole, 10 mM 2-mercaptoethanol, pH 7.5 at 4° C. by tumbling resin with buffer end-over-end, 30 min., 4° C. The resin was captured on a 0.2 μm membrane disposable filter unit (Millipore SCGP U02 RE) and the eluate collected in the reservoir. The eluate was concentrated using a 30 k MWCO centrifugal filter device (Sartorius Vivascience Vivacell 100, VC1022), to 20 ml. It was then dialyzed overnight at 4° C., two times against 2 L of 10% glycerol, 25 mM Tris-Cl, 300 mM NaCl, 0.2 mM EDTA, 0.2 mM DTT, pH 7.5 at 4° C. The protein was filtered using a 0.22 μm disposable filter unit (Millipore SCGP00525). The protein concentration was calculated from absorbance at 280 nm, using 280=0.67 cm-1 mg-1. […] The protein was stored at −80° C.
Human Hormone-Sensitive Lipase (HSL) Enzyme Inhibition Assay:
HSL enzyme activity was measured by a colorimetric assay using 2,3-dimercapto-1-propanol tributyrate (Aldrich, St. Louis, Mo.) as a substrate. Typically, 1.5 mM 2,3-dimercapto-1-propanol tributyrate (DMPT) in 100 mM MOPS, pH 7.2, 0.2 mg/ml fatty acid-free BSA was prepared by sonication at 4° C. to homogenous suspension. Test compounds (2 mM stock in DMSO) were diluted 3 fold in series in DMSO. Compound solutions were diluted 24 fold in 1.5 mM DMPT containing solution and 18 ul per well was added to 384-well microplates (Corning Costar). Twelve microliters per well of human HSL (15 ug/ml) was added and the reaction mixture was incubated at 37° C. for 20 minutes. Six microliters of 12 mM dithio-bis-(2-nitrobenzoic acid) (DTNB) in DMSO plus 1.2% SDS and 0.6% Triton X-100 were added and the mixture was incubated at room temperature for 15 minutes. Product production was monitored by reading absorbance at 405 nm on an Envision Reader (PerkinElmer Life and Analytical Sciences, Shelton, Conn.).
In the case of `O=C1N(c2ccc(C3CC3)cc2)CCC12CCN(CCc1ccccc1)CC2` [Example 2, 2-(4-Cyclopropyl-phenyl)-8-phenethyl-2,8-diaza-spiro[4.5]decan-1-one], the 50% inhibitory concentration (IC50) is 70 nM. With `O=C(CCN1CCC2(CC1)CCN(c1ccc(C3CC3)cc1)C2=O)Nc1ccc(F)cc1` [Example 20, 3-[2-(4-Cyclopropyl-phenyl)-1-oxo-2,8-diaza-spiro[4.5]dec-8-yl]-N-(4-fluoro-phenyl)-propionamide] the figure was 60 nM; with `O=C1N(c2ccc(C3CC3)cc2)CCC12CCN(C[C@H](O)c1cccc(Cl)c1)CC2` [Example 36, 8-[(R)-2-(3-Chloro-phenyl)-2-hydroxy-ethyl]-2-(4-cyclopropyl-phenyl)-2,8-diaza-spiro[4.5]decan-1-one], 30 nM; with `C[C@@H](Oc1ccc(N2CCC3(CCN(CC(O)c4c(F)cccc4Cl)CC3)C2=O)cc1)C(F)(F)F` (stereo partly drawn) [Example 48, 8-[2-(2-Chloro-6-fluoro-phenyl)-2-hydroxy-ethyl]-2-[4-((R)-2,2,2-trifluoro-1-methyl-ethoxy)-phenyl]-2,8-diaza-spiro[4.5]decan-1-one], 23 nM. Then `CN(C(=O)CCN1CCC2(CC1)CCN(c1ccc(C3CC3)cc1)C2=O)C1CCCCC1` [Example 22, N-Cyclohexyl-3-[2-(4-cyclopropyl-phenyl)-1-oxo-2,8-diaza-spiro[4.5]dec-8-yl]-N-methyl-propionamide], with 320 nM; and `CCN(CC)C(=O)CN1CCC2(CC1)CCN(c1ccc(C3CC3)cc1)C2=O` [Example 10, 2-[2-(4-Cyclopropyl-phenyl)-1-oxo-2,8-diaza-spiro[4.5]dec-8-yl]-N,N-diethyl-acetamide], with 380 nM; and `O=C(CN1CCC2(CC1)CCN(c1ccc(C3CC3)cc1)C2=O)Nc1ccc(F)cc1` [Example 13, 2-[2-(4-Cyclopropyl-phenyl)-1-oxo-2,8-diaza-spiro[4.5]dec-8-yl]-N-(4-fluoro-phenyl)-acetamide], with 80 nM.

On to `CCCCNC(=O)C(c1ccccc1)N1CCC2(CCN(c3ccc(C4CC4)cc3)C2=O)CC1` (stereo not shown) [Example 29, N-Butyl-2-[2-(4-cyclopropyl-phenyl)-1-oxo-2,8-diaza-spiro[4.5]dec-8-yl]-2-phenyl-acetamide], for which the IC50 came to 40 nM. With `CCC(c1ccccc1)N1CCC2(CCN(c3ccc(C4CC4)cc3)C2=O)CC1` (stereo not shown) [Example 7, 2-(4-Cyclopropyl-phenyl)-8-(1-phenyl-propyl)-2,8-diaza-spiro[4.5]decan-1-one] the figure was 30 nM; with `C[C@H](Oc1ccc(N2CCC3(CCN(CC(O)c4c(F)cccc4Cl)CC3)C2=O)cn1)C(F)(F)F` (stereo partly drawn) [Example 55, 8-[2-(2-Chloro-6-fluoro-phenyl)-2-hydroxy-ethyl]-2-[6-((S)-2,2,2-trifluoro-1-methyl-ethoxy)-pyridin-3-yl]-2,8-diaza-spiro[4.5]decan-1-one], 38 nM.

Consider `CC(c1ccccc1)N1CCC2(CCN(c3ccc(C4CC4)cc3Cl)C2=O)CC1` (stereo not shown) [Example 6, 2-(2-Chloro-4-cyclopropyl-phenyl)-8-(1-phenyl-ethyl)-2,8-diaza-spiro[4.5]decan-1-one], for which the half-maximal inhibitory concentration (IC50) came to 980 nM. Then `O=C1N(c2ccc(C3CC3)cc2)CCC12CCN(CCCc1ccccc1)CC2` [Example 1, 2-(4-Cyclopropyl-phenyl)-8-(3-phenyl-propyl)-2,8-diaza-spiro[4.5]decan-1-one], with 240 nM; and `C[C@@H](Oc1ccc(N2CCC3(CCN(CC(O)c4c(F)cccc4Cl)CC3)C2=O)cn1)C(F)(F)F` (stereo partly drawn) [Example 49, 8-[2-(2-Chloro-6-fluoro-phenyl)-2-hydroxy-ethyl]-2-[6-((R)-2,2,2-trifluoro-1-methyl-ethoxy)-pyridin-3-yl]-2,8-diaza-spiro[4.5]decan-1-one], with 42 nM. With `CN(Cc1ccccc1)C(=O)CN1CCC2(CC1)CCN(c1ccc(C3CC3)cc1)C2=O` [Example 15, N-Benzyl-2-[2-(4-cyclopropyl-phenyl)-1-oxo-2,8-diaza-spiro[4.5]dec-8-yl]-N-methyl-acetamide] the figure was 80 nM. Then `O=C1N(c2ccc(OCC(F)(F)F)cc2)CCC12CCN(CC(O)c1c(F)cccc1Cl)CC2` (stereo not shown) [Example 47, 8-[2-(2-Chloro-6-fluoro-phenyl)-2-hydroxy-ethyl]-2-[4-(2,2,2-trifluoro-ethoxy)-phenyl]-2,8-diaza-spiro[4.5]decan-1-one], with 35 nM. In the case of `CC(O)(CN1CCC2(CC1)CCN(c1ccc(C3CC3)cc1)C2=O)c1ccccc1` (stereo not shown) [Example 34, 2-(4-Cyclopropyl-phenyl)-8-(2-hydroxy-2-phenyl-propyl)-2,8-diaza-spiro[4.5]decan-1-one], the IC50 amounted to 100 nM. On to `CCNC(=O)CN1CCC2(CC1)CCN(c1ccc(C3CC3)cc1)C2=O` [Example 9, 2-[2-(4-Cyclopropyl-phenyl)-1-oxo-2,8-diaza-spiro[4.5]dec-8-yl]-N-ethyl-acetamide], for which the IC50 was determined as 610 nM. With `CCCCNC(=O)[C@@H](CCCC)N1CCC2(CCN(c3ccc(C4CC4)cc3)C2=O)CC1` [Example 42, (R)-2-[2-(4-Cyclopropyl-phenyl)-1-oxo-2,8-diaza-spiro[4.5]dec-8-yl]-hexanoic acid butylamide] the figure was 11 nM; with `CCCCNC(=O)C(CC)N1CCC2(CCN(c3ccc(C4CC4)cc3)C2=O)CC1` (stereo not shown) [Example 28, N-Butyl-2-[2-(4-cyclopropyl-phenyl)-1-oxo-2,8-diaza-spiro[4.5]dec-8-yl]-butyramide], 30 nM; with `O=C1N(c2ccc(C3CC3)cc2)CCC12CCN(CC(O)c1ccc(Cl)cc1Cl)CC2` (stereo not shown) [Example 38, 2-(4-Cyclopropyl-phenyl)-8-[2-(2,4-dichloro-phenyl)-2-hydroxy-ethyl]-2,8-diaza-spiro[4.5]decan-1-one], 30 nM. Then `O=C1N(c2ccc(C3CC3)cc2)CCC12CCN(CC(O)c1ccccc1)CC2` (stereo not shown) [Example 23, 2-(4-Cyclopropyl-phenyl)-8-(2-hydroxy-2-phenyl-ethyl)-2,8-diaza-spiro[4.5]decan-1-one], with 70 nM; and `CCCCNC(=O)CN1CCC2(CC1)CCN(c1ccc(C3CC3)cc1)C2=O` [Example 11, N-Butyl-2-[2-(4-cyclopropyl-phenyl)-1-oxo-2,8-diaza-spiro[4.5]dec-8-yl]-acetamide], with 90 nM.

What is called IC50 is the midpoint of a concentration-inhibition curve.

Values taken from patent US8389539B2, “Azacyclic derivatives” (Hoffman-La Roche Inc., priority 2009, dated 2013).
